Results taken from patent publication US10399994B2, “Compounds and methods for preventing or treating sensory hair cell death” (UNIVERSITY OF WASHINGTON, priority 2015, dated 2019).
Several values for one entry are separate records, joined by “and”; a condition that tells them apart may be missing. Equal values may be shown once. Where a name gives a salt, the structure may show the parent alone.

Columns and labels:
hair cells [1] = test: Neomycin Hair Cell Toxicity Assay in Zebrafish; format: in vivo
Procedure: Zebrafish are bred and newly fertilized embryos are collected the week prior and raised at 28.5° C. in petri dishes containing embryo medium. Newly hatched free-swimming larvae are fed paramecium and dry fish food at 4 days post fertilization (dpf) with lights on. For treatment, fish 5-7 dpf are transferred to cell culture baskets and place within a well of a 6-well plate containing 7 milliliters of 1× embryo medium. Typically, tests are done with ten fish per basket but work well with up to 50 fish. All treatment and wash volumes are 7 milliliters.
1. Fish are pre-treated with test compound for 1 hour. Concentrations between 0.010 to 25 micromolar of test compound are tested.
2. Treat with 200 micromolar neomycin (neomycin sulfate, Sigma, St. Louis, Mo., catalog #N1142)+ test compound for 30 minutes.
3. […]
5. […] The DASPEI staining of ten neuromasts (SO1, SO2, IO1, IO2, IO3, IO4, M2, MI1, MI2 and O2) on one side of an animal are evaluated. Each neuromast is scored for presence of DASPEI staining (score=2), reduced DASPEI staining (score=1) or absence of DASPEI staining (score=0). […] Average scores and standard deviations are calculated for animals in each treatment group. Scores are normalized to control group (vehicle only, no drug, no neomycin) and expressed as % hair cell survival. […] If less than 50% hair cells survive, the HC50 is not determined. […]

hair cells [2] = test: Cisplatin Hair Cell Toxicity Assay in Zebrafish; format: in vivo; conditions: cisplatin 50 μM for 24 hrs
Procedure: Zebrafish are bred and newly fertilized embryos are collected the week prior and raised at 28.5° C. in petri dishes containing embryo medium. Newly hatched free-swimming larvae are fed paramecium and dry fish food at 4 days post fertilization (dpf) with lights on. For treatment, fish 5-7 dpf are transferred to cell culture baskets and place within a well of a 6-well plate containing 7 milliliters of 1× embryo medium. Typically, tests are done with ten fish per basket but work well with up to 50 fish. All treatment and wash volumes are 7 milliliters. • 1. In a 48-well plate, place 10-12 fish/well in 300 μl of EM. • 2. Add ORC-13661 and vehicle control to each well at concentrations listed below. Swirl and place in incubator for 15 min. ORC-13661 concentrations tested: 0.103 μM, 0.308 μM, 0.925 μM, 2.78 μM, 8.33 μM. • 3. Add cisplatin 50 μM to pretreated and control wells. Swirl and place in incubator for 24 hrs. • 4. Place 1-2 drops of MS222 in each well to anesthetize fish, then aspirate treated EM. • 5. Add 300 μl/well of 4% paraformaldehyde to fix fish. Fix overnight at 4° C. or 2 hrs at room temperature (RT). • 6. Rinse wells with PBS for 15 min each 3 times. • 7. Add 300 μl/well of blocking solution for 1 hr at RT. • 8. Incubate with 300 μl/well of 1:400 mouse anti-Parvalbumin antibody overnight at 4° C. • 9. Rinse wells with PBS-T for 15 min each 3 times. • 10. […]

rats = test: Auditory Brainstem Response (ABR) Assay; format: in vivo; conditions: Day 24 vs Day 0, FIG. 2
Procedure: Chronic treatment of rats with aminoglycosides (AGs) such as kanamycin or amikacin results in an elevation of ABR thresholds, typically most pronounced at higher frequencies. For rats, hearing is tested at a range of frequencies to determine the intensity of sound (measured in decibels) necessary to evoke a response. As hearing loss becomes more severe, a higher intensity is needed to evoke a response. Each rat serves as its own control; hearing thresholds are determined at each frequency prior to any treatment and then at 2 weeks after a 10-day course of AG treatment (or control drug exposures).
The ABR assay measures short latency field potentials recorded from the scalp of animals that were sedated or noninvasively immobilized. […] For each animal, hearing thresholds, wave 1 latencies and input-output functions for stimulus frequencies at 2, 4, 8, 16 and 32 kHz were measured prior to any treatment to determine the initial sensitivity and dynamic range of hearing, and then repeated at the end of drug treatment and at the end of the experiment (2-weeks after dosing). […]
ABR records were evaluated by a “blinded”, trained experimenter. Hearing loss (Threshold Shift) was determined by subtracting the threshold during pre-treatment (Day 0) from the final ABR threshold (Day 24; two weeks following treatment). […]

kidney = test: Effect of Amikacin and Compound 9 on Kidney Function; format: in vivo, Fischer 344 rats; conditions: for creatinine clearance (CrCl) post-treatment compared to pretreatment: FIG. 3; for kidney histopathology damage score (0-4): FIG. 4
Procedure: The study consisted of three groups of Fischer 344 rats aged 6 weeks and weighing approximately 200 g at the start of the study. Group 1 consisted of six rats, randomly selected to receive amikacin only, Group 2 consisted of six rats chosen randomly to receive amikacin and compound 9, and Group 3 consisted of three rats, 2 rats given compound 9 and 1 rat given only 0.5% Methylcellulose, the diluent for compound 9. All animals receiving amikacin were given 320 mg/kg subcutaneously (SQ) from a freshly prepared solution of amikacin of 40 mg/mL. The compound 9 formualtion was prepared by weighing 13.08 mg of compound 9 dissolved in 12 mL of 0.5% MC in saline with vortexing, sonification and homogenization to obtain a solution with concentration at 12 mg/12 mL=1 mg/mL, dose volume is 5 mL/kg (5 mg/kg). The compound 9 solution was given by oral gavage at a dose of 5 mg/kg.
One day prior to the onset of dosing, blood was drawn from all rats for serum analysis and all rats were put into metabolic cages for 24 hour urine collection and analysis. All rats were returned to normal cages and allowed to eat and drink ad lib. All rats received their assigned treatments for 10 days and then were returned to metabolic cages for the 10th day. Three rats were randomly chosen from each of Group 1 and Group 2 to have additional blood draws at 30 min, 60 mn, 2 hr, 4 hr, 8 hr and 24 hr after the 10th dose for amikacin and compound 9 PK analysis. All rats had blood drawn for serum analysis at the end of day 10 and the 24 hour urine collected from day 10. After the final blood draw, all rats were euthanized and their kidneys removed and prepared for histopathology testing. The left kidneys were longitudinally sectioned, the right kidneys were cross sectioned. The pathologist read the slides, blinded to the group from which they were assigned. They graded viewed five different locations on each slide and gave each location a score for degree of damage: no damage (0 score); minimal (1-10%, 1 score), mild (11-20%, 2 score), moderate (21-50%, 3 score), or marked (51-100%, 4 score).
Previous studies have shown that aminoglycoside renal toxicity primarily affects the proximal and distal tubules of the kidney, eventually causing […] of the epithelial cells. The resulting damage causes, in part, decreased glomerular filtration rate (GFR) which may be a result of the tubular damage or partly through other mechanisms. The GFR was approximated using the creatinine clearance. […] The one-sided two-sample t-test p-value for the comparison of the amikacin only (Group 1) and amikacin+compound 9 (Group 2) are shown in a box between the two columns.

SMILES | EC50 (hair cells [1]; Danio rerio, concentration that would produce 50% hair cell survival, 1 hour pre-treatment, then 200 micromolar neomycin + test compound for 30 minutes, read-out: HC50 (the source's name)) [nM] | Max HC Protection (hair cells [1]; at 2.6 μM, 200 micromolar neomycin, % hair cell survival normalized to control) [% protection at 2.6 μM] | EC50 (hair cells [2]; Danio rerio, 15 min pretreatment, read-out: HC50 (the source's name)) [nM] | Max HC Protection (hair cells [2]; at 8.33 μM, hair cell counts as % control) [% protection at 8.33 μM] | Hearing loss (ABR Threshold Shift), high frequency (rats; Amikacin SC 320 mg/kg/day + Compound 9 PO 5 mg/kg/day for 10 days) | creatinine clearance (CrCl) post-treatment compared to pretreatment (kidney; Group 2: amikacin 320 mg/kg SQ + compound 9 5 mg/kg oral gavage for 10 days) | kidney histopathology damage score (0-4) (kidney; amikacin + compound 9 treated rats, longitudinal and cross sectioning (values not assigned to section in text), vs amikacin only p<0.005, hydrochloride) | Hearing loss (ABR Threshold Shift) (rats; Amikacin alone SC 320 mg/kg/day for 10 days) | creatinine clearance (CrCl) post-treatment compared to pretreatment (kidney; Group 1: amikacin only 320 mg/kg SQ for 10 days) | kidney histopathology damage score (0-4) (kidney; amikacin only rats, longitudinal and cross sectioning of the kidney)
CN1[C@H]2CC[C@@H]1c1c(sc(NC(=O)Nc3ccc(Cl)cc3)c1C(N)=O)C2 [Compound 9, (4R,7S)-2-(3-(4-chlorophenyl)ureido)-9-methyl-5,6,7,8-tetrahydro-4H-4,7-epiminocyclohepta[b]thiophene-3-carboxamide hydrochloride] | < 1000 | 96 | < 1000 | 90 | robust protection | significantly different from baseline | 3.6 and 3.1 | – | – | –
NCC[C@H](O)C(=O)N[C@@H]1C[C@H](N)[C@@H](O[C@H]2O[C@H](CN)[C@@H](O)[C@H](O)[C@H]2O)[C@H](O)[C@H]1O[C@H]1O[C@H](CO)[C@@H](O)[C@H](N)[C@H]1O [amikacin, reference compound] | – | – | – | – | – | – | – | hearing loss | significantly different from baseline | 3.9
